Molecules are shown by their SMILES.

This is an account of results in patent US20120214824A1, “PROTEOSTASIS REGULATORS” (priority 2010, published 2012).

The subject of one assay is HMOX1. The experiment in a line: Multigene assay (QuantiGene Plex 2.0), human HeLa cell line. The format is cell-based. To be noted: 6 hours post-compound treatment, Table 7.
Assay [1] deals with DDIT3. The assay is described as above. It counts as cell-based. To be noted: 6 hours post-compound treatment, Table 7.
In assay [2] the test system is GCLM. The description is as above. The format is cell-based. Conditions: 6 hours post-compound treatment, Table 7. Here is the method: (§1) This assay used the QuantiGene Plex 2.0 Reagent System from Affymetrix. This assay combines the use of bDNA (branch DNA) and xMAP magnetic capture beads from Luminex Technologies to quantitatively and simultaneously detect multiple mRNA transcripts per well. The overall procedure was performed according to the QuantiGene Plex 2.0 Reagent System instruction manual from Affymetrix.
(§2) Cells were seeded at a density of 12,000 cells/well in 96-well plates with an overnight incubation at 37° C., 5% CO2. Cells were treated with serially diluted compounds in a 7-point dose dependent manner. Cell lysis with 50% [v/v] Panomics Lysis Mixture (Lysis Mixture+10 μl/ml 25 Proteinase K) was performed 6 hours post-compound treatment. Lysed cells were heated at 50° C. to ensure appropriate lysing and the plates were then frozen at −80° C. Cell lysates, thawed at room temperature on the day of the assay, were pooled with mouse 8-gene multiplex probe sets and with 8 different sets of magnetic capture beads (Luminex Technology, Austin, Tex.) in a 100 μl/well volume. Biomek FX was used at every liquid transfer step. The eight plates containing lysate-probe-bead mixtures were incubated at 54° C.±1° C. on a shaking platform for an overnight incubation in the dark (18-20 hours). The following day the hybridization plates were compressed by transferring the hybridized lysates into a single magnetic capture plate. The plate was kept on a magnet to hold the beads and then washed with Panomics Wash Buffer 2.0 on a BioTek ELx405 select plate washer to remove any unbound sample. This step was followed by serial hybridizations and washings of the bDNA pre-amplifier (1 hour, 50° C.), bDNA amplifier (1 hour, 50° C.), label probe (1 hour, 50° C.), and streptavidin-phycoerythrin (SAPE, 30 minutes, room temperature). (Zhang, A. et al. Small interfering RNA and gene expression analysis using a multiplex branched DNA assay without RNA purification. J Biomol Screen 10, 549-56 (2005)). The plate was then washed with SAPE wash buffer to remove unbound SAPE and each well was analyzed with the Luminex FlexMap3D (Luminex, Austin, Tex.). SAPE fluorescence measured from each bead was proportional to the number of mRNA transcripts captured by the beads (Zheng, Z., Luo, Y. & McMaster, G. K. Sensitive and quantitative measurement of gene expression directly from a small amount of whole blood. Clin Chem 52, 1294-302 (2006)). Fold changes in gene expression were obtained for each gene per well by normalizing the raw data first to the DMSO control and then to a housekeeping gene (TBP-TATA binding protein or Tub1-alpha-tubulin).

Assay [3] has as its system HspA5. The description is as above. It counts as cell-based. Conditions: 6 hours post-compound treatment, Table 7. As to the method:
as §1, §2

The test system of assay [4] is Hspa1a. Described as above. The format is cell-based. Conditions: 6 hours post-compound treatment, Table 7. Here is the method:
as §1, §2

The next assay concerns SQSM. The assay is described as above. The format is cell-based. To be noted: 6 hours post-compound treatment, Table 7. As to the method:
as §1, §2

The next assay deals with firefly luciferase. Put plainly: Luciferase folding assay (Lucif.). The format is cell-based, human. To be noted: HeLa-luciferase cells; Table 1a. The source says:
Firefly luciferase is a commonly used bioluminescent reporter. This monomeric enzyme of 61 kDa catalyzes a two-step oxidation reaction to yield light, usually in the green to yellow region, typically 550-570 nm. The first step of this reaction is activation of the luciferyl carboxylate by ATP to yield a reactive mixed anhydride. In the second step, the activated intermediate reacts with oxygen to create a transient dioxetane that breaks down to the oxidized products, oxyluciferin and CO2. Upon mixing with substrates, firefly luciferase produces an initial burst of light that decays over about 15 seconds to a low level of sustained luminescence. This kinetic profile reflects the slow release of the enzymatic product, thus limiting catalytic turnover after the initial reaction.
This mammalian cell based assay that used firefly luciferase as a sensor was used to screen for compounds that may modulate the cellular folding environment.
HeLa luciferase cell lines: Frozen bullets containing the cells were thawed briefly at 37° C. then placed into a T-150 flask containing 30-35 ml DMEM medium+Penicillin/Strep (1% final+10% FBS (final)+Geneticin @ 200-500 ug/ml. Cell cultures were maintained at 37° C. with 5% CO2 and water in the bottom of the incubator to keep cells healthy. Upon expanding cell line, luciferase measurements were taken to make sure that activity levels were between 2000-5000 (RLU) when plated at 15K/well in a 96-well format (Bright-Glo Promega) before compound treatment.
Compound treatment of HeLa-luciferase cells: HeLa-luciferase WT cells were plated in a 96-well format at 15K/well the day prior to performing compound treatment and/or luciferase assay. […] Final volume used per well was 90 uL. Flat bottom, white polystyrene plates were used for plating the cells.
For compound treatment, stocks of compounds were made up at 10 mM concentration in DMSO. Stocks compounds were diluted by 100× fold in the same media used for culturing the cells—this leads to a 0.1 mM (or 100 uM) concentration. After diluting the compound in media, 10 uL of the 100 uM solution was placed into each well of cells (90 uL); making the final concentration of the compound 10 uM. If serial dilutions of compounds were tested, serial dilutions of compounds were first made in DMSO accordingly, and further diluted in the media, prior to adding to cells. This procedure allowed for constant final levels of DMSO concentrations, regardless of initial compound concentration.
Performing luciferase activity assay: Bright-Glo Luciferase Assay Reagent (Promega cat #: E2610, E2620, E2650) was thawed out at RT in a water bath. Alternatively, Bright-Glo Luciferase assay buffer (prior to mixing with substrate) was stored overnight at RT, prior to using.
Following compound treatment, plates were removed from 37° C. and allowed to acclimate to RT for 5-10 min. Bright-Glo reagent was added to each cell-containing well in a 1:1 ratio (e.g., 100 uL of Bright Glo for each 100 uL cells).
Plates were placed on a plate shaker for 5 min, removing any air bubbles on the surface (which may interfere with proper reads), and then read on an EnVision 2104 Multilabel reader, Emission filter Luminescence 700, barcode 212, WL 400-700 nm.
Data for representative compounds in this assay are shown under the heading “Lucif.”

The test system of assay [5] is DDIT3. Put plainly: Multigene assay (QuantiGene Plex 2.0), mouse MEF cell line. It counts as cell-based. To be noted: 6 hours post-compound treatment, Table 1a. The method, boiled down: (§3)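 Readout is SAPE bead fluorescence proportional to captured mRNA, obtained from lysates of cells exposed to serially diluted compound for 6 h. Values are fold changes relative to DMSO control, corrected against TBP or alpha-tubulin.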

Assay [6] has as its system GCLM. The assay is described as above. It counts as cell-based. Conditions: 6 hours post-compound treatment, Table 1a. A digest of the protocol:
as §3

The subject of assay [7] is HspA5. The description is as above. The format is cell-based. Conditions: 6 hours post-compound treatment, Table 1b. A digest of the protocol:
as §3

A further assay relates to HMOX. The description is as above. The format is cell-based. Conditions: 6 hours post-compound treatment, Table 1b. A digest of the protocol:
as §3

In the next assay the test system is BCL2. Described as above. To be noted: 6 hours post-compound treatment, Table 1b. It counts as cell-based. The method, boiled down:
as §3

For assay [8], the system named is HSPA1a. The description is as above. The format is cell-based. Conditions: 6 hours post-compound treatment, Table 1b. The method, boiled down: as §3
For the next assay, the system named is TUB1. The description is as above. The format is cell-based. Conditions: 6 hours post-compound treatment, Table 1a. A digest of the protocol: as §3
The subject of assay [9] is medium spiny neurons in rat brain slices transfected with human mutant huntingtin-based constructs. Put plainly: Huntington's disease brain slice-based screening assay. Conditions: ex vivo rat brain slices transfected with Htt-exon1-Q73 construct; at concentrations from 0.1 uM to 3 uM (tested 0.03, 0.1, 0.3, 1 and 3 uM). The format is cell-based. Here is the method: The FIGURE is a bar graph showing the number of healthy medium spiny neurons in rat brain slices for YFP, mN90Q73, KW+SP (positive control) and for [4-(2-isopropoxyphenyl)-2-methyl-5-oxo-7-(thiophen-2-yl)-1,4,5,6,7,8-hexahydroquinoline-3-carbonitrile] exposure at 0.03, 0.1, 0.3, 1 and 3 uM. Hemi-coronal brain slices containing striatum were prepared and transfected with control and huntingtin (Htt) constructs. YFP is Yellow Fluorescence Protein (YFP) plus vector. mN90Q73 is YFP plus the Htt-exon1-Q73 construct. The combination of KW-6002 (50 uM) and SP600125 (30 uM) was used as a positive control.
Selected compounds that modulated proteostasis network genes were tested in an ex vivo screening assay in which rat brain slices were transfected with human mutant huntingtin-based constructs as described in Reinhart et al., Identification of anti-inflammatory targets for Huntington's disease using a brain slice-based screening assay, Neurobiology of Disease (2011), 43(1), 248-256, the contents of which are expressly incorporated by reference herein. Hemi-coronal brain slices containing striatum were prepared and transfected with control and huntingtin (Htt) constructs.
50 uM KW-6002 (Istradefylline) in combination with 30 uM SP600125 was used as a positive control. YFP is Yellow Fluorescence Protein (YFP) plus vector. mN90Q73 is YFP plus the Htt-exonl-Q73 construct. […]

As for `CC1=C(C#N)C(c2ccccc2OC(C)C)C2=C(CC(c3ccccc3)CC2=O)N1` (stereo not drawn) [D], the HMOX1 gene induction result in the assay with HMOX1 was “+ (+ indicates a induction of greater than 2 fold)”. Also, the DDIT3 gene induction entry with DDIT3 [1] is “— (— Indicates less than 2 fold induction)”. Moreover, in the assay with GCLM [2], the GCLM gene induction result is “— (— Indicates less than 2 fold induction)”. The HspA5 gene induction result in the assay with HspA5 [3] is “— (— Indicates less than 2 fold induction)”. Besides, the HSPA1a gene induction entry in the assay on Hspa1a [4] is “+ (+ indicates a induction of greater than 2 fold)”. For the same molecule, the SQSM gene induction entry in the assay on SQSM was “— (— Indicates less than 2 fold induction)”.

With `CC1=C(C#N)C(c2ccccc2OC(C)C)C2=C(CC(c3cccs3)CC2=O)N1` (stereo not drawn) [drawing 26/Me/CN/o-OCHMe2, 4-(2-isopropoxyphenyl)-2-methyl-5-oxo-7-(thiophen-2-yl)-1,4,5,6,7,8-hexahydroquinoline-3-carbonitrile], in the assay on firefly luciferase, the “Lucif. (luciferase activity induction)” value is given as “+ (+ indicates a induction of greater than 2 fold)”. Besides, the DDIT3 gene induction entry with DDIT3 [5] is on record as “− (− Indicates less than 2 fold induction)”. Further, the GCLM gene induction entry in the assay on GCLM [6] was “− (− Indicates less than 2 fold induction)”. Moreover, the HspA5 gene induction entry with HspA5 [7] is recorded as “− (− Indicates less than 2 fold induction)”. For the same molecule, the HMOX gene induction result in the assay on HMOX was “− (− Indicates less than 2 fold induction)”. Also, in the assay on BCL2, the BCL2 gene induction entry was “− (− Indicates less than 2 fold induction)”. Also, in the assay on HSPA1a [8], the HSPA1a gene induction result is “− (− Indicates less than 2 fold induction)”. Further, in the assay on TUB1, the TUB1 gene induction entry is recorded as “− (− Indicates less than 2 fold induction)”. Moreover, in [9], the “medium spiny neurons viability (number of healthy medium spiny neurons)” value is “improved medium spiny neurons viability”.
